These are literature values, as cited in patent publication US20080057086A1, “COLON-TARGETED ORAL FORMULATIONS OF CYTIDINE ANALOGS” (PHARMION CORPORATION, priority 2006, published 2008).

This series concerns total hemoglobin, fetal hemoglobin and F cells. Conditions: sickle cell patients; oral THU 200 mg/d alone; cited from earlier work.

As to `O=C1NC(O)CCN1[C@@H]1O[C@H](CO)[C@@H](O)[C@H]1O` (stereo partly shown) [THU, tetrahydrouridine], the F reticulocyte production entry is listed as “did not result in increased F reticulocyte production”.
